Columns and labels:
[1] = test system: hepatoma and colon cancer cells; settings: previous studies of the inventors; cited from earlier work
[2] = test system: COLO 205 cells; assay: DNA fragmentation (DNA ladder) by electrophoresis of genomic DNA; format: cell-based, human
Description: Genomic DNAs extracted from TB-treated COLO 205 were examined by gel electrophoresis. […] In FIG. 9, the part of (A) refers to potentiation of ND-induced apoptosis by TB. […] DNA fragmentation was examined at 24 h after drug treatment. In the lanes 2 and 8, cells received mock treatment as controls. The symbols of “M” (in lanes 1 and 7), refer to “DNA size marker.” (B) average tumor volume of DMSO-treated vs. drug-treated nude mice (n=5). (C) tumor weight, (D) animal body weight, and (E) tumor/body weight ratio were measured at the end of experiment. Five samples were analyzed in each group, and values represent the mean±S.E. Comparisons were subjected to ANOVA followed by Fisher's least significant difference test. Significance was accepted at p<0.05. *TB-, ND-, and TB+ND-treated group different from DMSO-treated group. TB+ND-treated group different from TB- or ND-treated group.

[3] = test system: COLO 205 tumor xenografts; assay: Treatment of COLO 205-derived xenografts in vivo; design: species or system nude mouse; settings: TB 50 mg/kg, ND 5 mg/kg, intraperitoneal, 3 times per week for 6 weeks
Description: Genomic DNAs extracted from TB-treated COLO 205 were examined by gel electrophoresis. […] DNA fragmentation was examined at 24 h after drug treatment. In the lanes 2 and 8, cells received mock treatment as controls. […] Comparisons were subjected to ANOVA followed by Fisher's least significant difference test. […] Since, retardation of the cell cycle and/or activation of the cellular apoptotic response are two major mechanisms preventing tumor growth, we examined the TB effect on the cell cycle and apoptosis occurrence of the solid tumor derived from the implanted COLO 205. The COLO-205 cells (5×10^6) in 0.1 ml RPMI 1640 were injected subcutaneously between the scapulae of each nude mouse (purchased from National Science Council animal center, Taipei). […]

[4] = test system: COLO 205 tumor xenografts; settings: previous research; cited from earlier work
[5] = test system: malignant cells; settings: through abnormal microtubule polymerization; previous study; cited from earlier work

SMILES: CC(=O)N1CCN(c2ccc(OCC3COC(Cn4ccnc4)(c4ccc(Cl)cc4Cl)O3)cc2)CC1 (stereo not drawn) [ketoconazole]
- cell cycle arrest and apoptosis [1]: induced cell cycle arrest at the G0/G1 phase of the cell cycle and the occurrence of apoptosis

SMILES: COC(=O)Nc1nc2ccc(C(=O)c3cccs3)cc2[nH]1 [ND, nocodazole]
- ND concentration at which DNA ladder patterns characteristic of apoptosis are displayed ([2]; ND alone, 24 h after drug treatment): ≥ 50 nM
- ND concentration inducing the DNA ladder pattern ([2]; in the presence of 10 μM TB, 24 h): 1 nM
- tumor volume vs. vehicle (DMSO plus peanut oil) [3]: reduction in tumor volume

SMILES: COC1=CC(=O)C[C@@H](C)[C@]12Oc1c(Cl)c(OC)cc(OC)c1C2=O [griseofulvin]
- effect on anti-cancer activities of nocodazole in vivo [4]: potentiates the anti-cancer activities of nocodazole
- apoptosis and cell cycle arrest [5]: induced apoptosis and cell cycle arrest at the G2/M phase
